Structures can show the parent of a compound that is named as a salt.
Species: Rattus norvegicus
Assay: Open TG-GATES - Regimen: Single
Format: toxicity, organism-based, Sprague-Dawley
Parameters: regimen Single, gender Male, age 6 weeks
Settings: in vivo, ip, 80 mg/kg, route intraperitoneal injection, dose level Low; for APTT / Bas / Eos / Fbg / Hb / Ht / Lym / MCH / MCHC / MCV / Mono / Neu / PT / Plat / RBC / Ret / WBC: tissue Blood; for KIDNEY_L / KIDNEY_R / KIDNEY_TOTAL: tissue Kidney; for LIVER: tissue Liver; for A/G / ALP / ALT / AST / BUN / CRE / Ca / Cl / DBIL / GLC / IP / K / LDH / Na / PL / RALB / TBIL / TC / TG / TP / gamma-GTP: tissue Plasma

## CCOC(=O)/C=C\C(=O)OCC [DIETHYL MALEATE]
3 h
  TERMINAL_BW: 197.8 g
  APTT: 16.6 s
  Bas: 0%
  Eos: 0.4%
  Fbg: 212.4 mg/dL
  Hb: 13.4 g/dL
  Ht: 40%
  Lym: 73.4%
  MCH: 22 pg
  MCHC: 33.5%
  MCV: 65.8 fL
  Mono: 6.6%
  Neu: 20%
  PT: 12.3 s
  Plat: 114.6 x10_4/uL
  RBC: 608.6 x10_4/ul
  Ret: 9.4%
  WBC: 97 x10_2/uL
  KIDNEY_L: 0.8 g
  KIDNEY_R: 0.9 g
  KIDNEY_TOTAL: 1.7 g
  LIVER: 9 g
  A/G: 1.9
  ALP: 802.4 IU/L
  ALT: 41.2 IU/L
  AST: 75.2 IU/L
  BUN: 14.8 mg/dL
  CRE: 0.5 mg/dL
  Ca: 11 mg/dL
  Cl: 106.6 meq/L
  DBIL: 0.032 mg/dL
  GLC: 194.2 mg/dL
  IP: 10.2 mg/dL
  K: 5.1 meq/L
  LDH: 80.8 IU/L
  Na: 140.4 meq/L
  PL: 150.4 mg/dL
  RALB: 3.6 g/dL
  TBIL: 0.4 mg/dL
  TC: 88 mg/dL
  TG: 33 mg/dL
  TP: 5.5 g/dL
  gamma-GTP: 1 IU/L
6 h
  TERMINAL_BW: 197.1 g
  APTT: 16.8 s
  Bas: 0%
  Eos: 0.6%
  Fbg: 207.2 mg/dL
  Hb: 13.1 g/dL
  Ht: 39.2%
  Lym: 76.2%
  MCH: 21.9 pg
  MCHC: 33.4%
  MCV: 65.4 fL
  Mono: 5.2%
  Neu: 17.8%
  PT: 12.2 s
  Plat: 116.6 x10_4/uL
  RBC: 599.8 x10_4/ul
  Ret: 9.5%
  WBC: 108.8 x10_2/uL
  KIDNEY_L: 0.9 g
  KIDNEY_R: 0.9 g
  KIDNEY_TOTAL: 1.7 g
  LIVER: 8.4 g
  A/G: 1.9
  ALP: 753.2 IU/L
  ALT: 36.4 IU/L
  AST: 76.2 IU/L
  BUN: 13 mg/dL
  CRE: 0.5 mg/dL
  Ca: 10.7 mg/dL
  Cl: 106.8 meq/L
  DBIL: 0.002 mg/dL
  GLC: 194 mg/dL
  IP: 10 mg/dL
  K: 4.8 meq/L
  LDH: 91 IU/L
  Na: 139.2 meq/L
  PL: 131.4 mg/dL
  RALB: 3.4 g/dL
  TBIL: 0.5 mg/dL
  TC: 73.4 mg/dL
  TG: 46 mg/dL
  TP: 5.3 g/dL
  gamma-GTP: 1 IU/L
9 h
  TERMINAL_BW: 197.4 g
  APTT: 16.7 s
  Bas: 0%
  Eos: 0.8%
  Fbg: 223.2 mg/dL
  Hb: 12.9 g/dL
  Ht: 38.5%
  Lym: 71.4%
  MCH: 21.7 pg
  MCHC: 33.6%
  MCV: 64.7 fL
  Mono: 3.8%
  Neu: 24%
  PT: 11.7 s
  Plat: 117.4 x10_4/uL
  RBC: 596.2 x10_4/ul
  Ret: 9.2%
  WBC: 102 x10_2/uL
  KIDNEY_L: 0.8 g
  KIDNEY_R: 0.9 g
  KIDNEY_TOTAL: 1.7 g
  LIVER: 8 g
  A/G: 2.2
  ALP: 735 IU/L
  ALT: 35.2 IU/L
  AST: 73.4 IU/L
  BUN: 12.6 mg/dL
  CRE: 0.4 mg/dL
  Ca: 10.5 mg/dL
  Cl: 107.2 meq/L
  DBIL: 0.026 mg/dL
  GLC: 204.6 mg/dL
  IP: 9.6 mg/dL
  K: 4.7 meq/L
  LDH: 89.4 IU/L
  Na: 139.6 meq/L
  PL: 137.8 mg/dL
  RALB: 3.6 g/dL
  TBIL: 0.3 mg/dL
  TC: 79.4 mg/dL
  TG: 41 mg/dL
  TP: 5.3 g/dL
  gamma-GTP: 1.4 IU/L
24 h
  TERMINAL_BW: 209.5 g
  APTT: 15.5 s
  Bas: 0%
  Eos: 0.8%
  Fbg: 225.8 mg/dL
  Hb: 12.9 g/dL
  Ht: 38.7%
  Lym: 79.4%
  MCH: 21.6 pg
  MCHC: 33.4%
  MCV: 64.7 fL
  Mono: 4.6%
  Neu: 15.2%
  PT: 11.8 s
  Plat: 123.2 x10_4/uL
  RBC: 598.4 x10_4/ul
  Ret: 9.8%
  WBC: 94.6 x10_2/uL
  KIDNEY_L: 0.9 g
  KIDNEY_R: 0.9 g
  KIDNEY_TOTAL: 1.8 g
  LIVER: 10 g
  A/G: 2.1
  ALP: 887.2 IU/L
  ALT: 36 IU/L
  AST: 63.6 IU/L
  BUN: 17.4 mg/dL
  CRE: 0.5 mg/dL
  Ca: 11.1 mg/dL
  Cl: 106 meq/L
  DBIL: 0.03 mg/dL
  GLC: 195.8 mg/dL
  IP: 8 mg/dL
  K: 5 meq/L
  LDH: 94.4 IU/L
  Na: 139.6 meq/L
  PL: 148.8 mg/dL
  RALB: 3.7 g/dL
  TBIL: 0.3 mg/dL
  TC: 82.6 mg/dL
  TG: 93 mg/dL
  TP: 5.5 g/dL
  gamma-GTP: 1.6 IU/L

Source: ChEMBL document CHEMBL3885861, “Open TG-GATES”
